Measured values: US20090259043A1, “TRICYCLIC CYTOPROTECTIVE COMPOUNDS” (HUNTER-FLEMING LIMITED, priority 2005, published 2009)

How the values were obtained:
[1] = tested on: organotypic hippocampal slice cultures; test: Neuroprotection against hypoxia in organotypic hippocampal slice cultures (PI fluorescence in CA1); format: cell-based, Wistar rat; conditions: vs control (hypoxia only = 100% damage); 180 min hypoxia; compound present 45 min pre-hypoxia, during and 24 h post-hypoxia; PI fluorescence area in CA1
Description: Organotypic hippocampal slice cultures were prepared using the basic method of Pringle et al [Brain Res. 755, 36-46 (1997)] modified as follows:
Wistar rat pups (8-11 days old) were decapitated and the hippocampus rapidly dissected into ice-cold Gey's balanced salt solution supplemented with 4.5 mg/ml glucose. Slices were separated and plated onto Millicell CM culture inserts (4 per well) and maintained at 37° C./5% CO2 for 14 days. Maintenance medium consisted of 25% heat-inactivated horse serum, 25% Hank's balanced salt solution (HBSS) and 50% minimum essential medium with added Earle's salts (MEM) supplemented with 1 mM glutamine and 4.5 mg/ml glucose. Medium was changed every 3-4 days.
Experimental hypoxia was performed as described previously (Pringle et al., Stroke 27, 21-24 (1996)& Brain Res. 755, 36-46 (1997)]. Briefly, cultures were transferred to serum free medium (SFM-75% MEM, 25% HBSS supplemented with 1 mM glutamine and 4.5 mg/ml glucose) containing 5 μg/ml of the fluorescent exclusion dye propidium iodide (PI). Cultures were allowed to equilibrate in SFM for 60 minutes prior to imaging. PI fluorescence was detected using a Leica DMIL inverted microscope fitted with a rhodamine filter set. Any cultures in which PI fluorescence was detected at this stage were excluded from further study. Hypoxia was induced by transferring cultures to SFM (+PI) which had been saturated with 95% N2/5% CO2. Culture plates (without lids) were then sealed into an airtight chamber in which the atmosphere was saturated with 95% N2/5% CO2 by continuously blowing through gas at 10 L/minute for ten minutes before being sealed and placed in the incubator for 170 minutes (total time of hypoxia was therefore 180 minutes). At the end of the hypoxic period cultures were returned to normoxic SFM containing PI and placed back in the incubator for 24 hours.
Neuronal damage was assessed using ImageJ running on a PC. Images were captured using a CCD camera and saved for offline analysis. Light transmission images were captured prior to the addition of drugs, and PI fluorescence images recorded at the end of the 24-hour post-hypoxia recovery period. The area of the CA1 sub-region was determined from the transmission image. The area of PI fluorescence in the CA1 was measured using the threshold function on ImageJ, and neuronal damage expressed as the percentage of the CA1 in which PI fluorescence was detected above background.
Unpaired Student's t-tests were employed to ascertain statistical significance.
A series of compounds were examined for possible neuroprotection against hypoxia in organotypic hippocampal slice cultures. Compounds No. 4, 6, 7, 8, 10, 14, 15, 16, 17, 20, 21, 22 and 23 were dissolved in DMSO to a concentration of 1 mg/ml.
7β-hydroxy-epiandrosterone (7β-OH EPIA), a neuroprotective compound, at 100 nM concentrations, was employed as a positive control. A stock solution of 1 mg/ml was dissolved in ethanol. Final dilutions were made in SFM.
The efficacy of all compounds was assessed using a pre-during and post-hypoxia paradigm—compounds were present in the medium 45 minutes pre-hypoxia, the 3 hours of hypoxia and 24 hours post-hypoxia.

Compound	% damage in hypoxia model with compound [1] [%]	melting point
COc1ccc2[nH]c3c(c2c1)CCC(C(=O)O)C3 (stereo not drawn) [Compound No. 15, 6-Methoxy-2,3,4,9-tetrahydro-11H-carbazole-2-carboxylic acid]	65	–
O=C1CCc2[nH]c3ccccc3c2C1 [Compound No. 7, 1,2,4,9-Tetrahydro-3H-carbazol-3-one]	70	–
Cc1ccc2c3c([nH]c2c1C)CCC(O)C3 (stereo not drawn) [Compound No. 10, 7,8-Dimethyl-2,3,4,9-tetrahydro-1H-carbazol-3-ol]	76	192 to 195 °C
c1ccc2c3c([nH]c2c1)CCC1(C3)OCCO1 [Compound No. 6, 1,2,4,9-Tetrahydro-spiro[carbazole-3,2′-[1,3-dioxolane]]	63	–
COc1ccc2[nH]c3c(c2c1)CC(=O)CC3 [compound 23, 6-Methoxy-1,2,4,9-tetrahydro-3H-carbazol-3-one]	57	–
O=C1CCc2[nH]c3ccccc3c21 [Compound No. 8, 3,4-dihydrocyclopenta[b]indol-1 (2H)-one]	59	–
COc1ccc2[nH]c3c(c2c1)CS(=O)(=O)CC3 [Compound No. 12, 8-Methoxy-1,3,4,5-tetrahydrothiopyrano[43-b]indole 2,2-dioxide]	–	283 to 286 °C (dec.)
O/N=C1\CCc2[nH]c3ccccc3c2C1 [Compound No. 21, (3E)-1,2,4,9-Tetrahydro-3H-carbazol-3-one oxime]	40	173 to 175 °C (dec.)
Cc1ccc(C)c2c3c([nH]c12)CC(C(=O)O)CC3 (stereo not drawn)	–	228 to 230 °C
COc1ccc2[nH]c3c(c2c1)CC1(CC3)OCCO1 [Compound No. 22]	75	168 to 169 °C
O/N=C1\CCCc2[nH]c3ccccc3c21 [Compound No. 20, (4E)-1,2,3,9-Tetrahydro-4H-carbazol-4-one oxime]	54	–
COc1ccc2[nH]c3c(c2c1)CCC3 [Compound No. 17, 7-Methoxy-1,2,3,4-tetrahydrocyclopenta[b]indole]	35	128 to 130 °C
OC1CCc2[nH]c3ccccc3c2C1 (stereo not drawn) [Compound No. 4, 2,3,4,9-Tetrahydro-1H-carbazol-3-ol]	58	–
O=C(O)c1ccc2[nH]c3c(c2c1)CCCC3=O [Compound No. 14, 1-Oxo-2,3,4,9-tetrahydro-1H-carbazole-6-carboxylic acid]	53	–
O=C(O)c1ccc2[nH]c3c(c2c1)CCC3 [Compound No. 18, 1,2,3,4-Tetrahydrocyclopenta[b]indole-7-carboxylic acid]	–	270 to 274 °C
Cc1ccc(C)c2c3c([nH]c12)CCC(O)C3 (stereo not drawn)	–	158 to 161 °C
COc1ccc2[nH]c3c(c2c1)CCCC3 [compound 16, Methyl 2,3,4,9-tetrahydro-1H-carbazol-6-yl ether]	60	–
